Measured values from publication PMC8110578, “Phenylethynylbenzyl-modified biguanides inhibit pancreatic cancer tumor growth” (Scientific Reports, 2021).
Values joined by “and” are separate entries in the source; they are usually repeats but may differ in a detail not shown here. Identical values can stand only once. Like-named read-outs stand apart in the source and are kept apart here.

Experiments:
KP4 cells [1] = experiment: Growth assay (crystal violet), KP4 cells; type: cell-based, human; settings: for IC50: KP4 cells
Protocol: All chemicals were purchased from Aldrich Chemicals in their highest purity and used without further purification. Deuterated dimethylsulfoxide (DMSO-d^6) and deuterated chloroform (CDCl3) were purchased from CDN Isotopes. NMR spectra were recorded on Bruker advance 400 and 100 spectrometers. Coupling constants are given in hertz (Hz) and chemical shifts are given in parts per million (ppm, δ) measured relative to the residual solvent (the multiplicity of the signals are given as s: singlet, d: doublet, t: triplet, and m: multiplet). High-resolution mass spectra (HRMS) were recorded on a TSQ Quantum Ultra (Thermo Scientific) triple quadrupole with accurate mass option instrument (Université de Montréal Mass Spectrometry Facility). MS experiences were performed using an UltrafleXtreme MALDI TOF/TOF mass spectrometer equipped with a SmartBeam II Nd:Yag/355 nm laser operating at 1 kHz and providing a laser focus down to 20 μm in diameter (Bruker Daltonics, Billerica, MA). The data acquisition for MS was performed in positive ion mode using the linear geometry with flexControl 3.4 (Bruker Daltonics, Billerica, MA). Acceleration voltage was set to + 25 kV and all other instrumental parameters (delayed extraction parameters, source voltages, detector gain, laser energy, etc.) were optimized for maximum S/N for the drug compounds. L-α-Phosphatidylcholine was purchased from Avanti Polar Lipids. Transport and depolarization studies as well as absorbance measurements were performed on a Varian Cary Eclipse fluorescence spectrophotometer. The hemolysis assays were performed on a Fluostar Optima plate reader. Single crystals of C18H18F3N5O3S were obtained from chloroform. A suitable crystal was selected and analysed on a Bruker Venture Metaljet diffractometer. Crystal violet retention assay was used for cell growth assays and IC50 were determined using Prism (GraphPad). NAD/NADH quantitation colorimetric kit (#K337-100) from Biovision was used according to manufacturer’s instructions. ECAR (extracellular acidification rate) and OCR of KP4 cells (oxygen consumption rate) were measured on a Seahorse XF-24 (Agilent).
Experimental. KP4 (Riken RCB1005) and PSN1 (ATCC: CRM-CRL-3211), were cultured in Dulbecco's modified Eagle's medium (DMEM) (Wisent, St-Bruno, QC) supplemented with 10 % of fetal bovine serum (FBS) (Wisent). HPNE hTERT (ATCC: CRL1423) were cultured in a mix of 75% DMEM without glucose (Sigma Cat#. D-5030) with additional 2 mM L-glutamine and 1.5 g/L sodium bicarbonate, 25% Medium M3 Base (Incell Corp. Cat# M300F- 500), fetal bovine serum 5% (wisent 10 ng/ml human recombinant EGF (Sigma-Aldrich), 5.5 mM D-glucose (Sigma-Aldrich), 750 ng/ml puromycin (Sigma-Aldrich). For dose-response assays, cells were seeded in 96 well plates (company). After 24 h, treatments were applied and cells were grown for 3 more days. Crystal violet retention assay used for cell growth assays were described previously^2. The data is expressed as relative absorbance of crystal violet extracted from the cells and diluted in 10 % acetic acid. IC50 were determined using Prism (GraphPad). Tumor spheres were grew according to Ferbeyre et al^3.

KP4 cells [2] = experiment: Mitochondrial morphology by anti-TOMM20 immunofluorescence, KP4 cells; type: cell-based, human; settings: 24 h, 1b 15µM, metformin 5mM
Protocol: The action of biguanides in mitochondria can lead to morphological alterations that include disorganisation of the cristae. […].  Figure 4 Effects of biguanides on mitochondrial morphology. (A) Mitochondrial morphology in KP4 cells 24 h following the indicated treatments as visualised by anti-TOMM20 immunofluorescence. Scale bar = […]. […] The data represents the mean of 2 biological replicates and for each replicate three counts of 50 cells were done. n = 300 cells per treatment. Data was analyzed with one way ANOVA followed by Tukey HSD test.
Experimental. KP-4 cells were seeded at 50% confluency on slides in 6-well plates. […] After 24h of treatment, cells were washed twice with PBS1X then were fixed during 10 minutes at 4°C with 4% paraformaldehyde. Cells were washed again three times with PBS1X then permeabilized during 5 min in PBS1X, 2%BSA, 0,2%Triton X-100. Slides were washed three times 10 minutes with 1XPBS, 2%BSA, then incubated overnight with primary antibody anti-TOMM20 (Rabbit, 1:150, Santa Cruz, sc-11415) diluted in 1XPBS, 2%BSA. Slides were washed three times 10 minutes with 1XPBS, 2%BSA then incubated 1 hour at RT with anti-Rabbit-AlexaFluor568 secondary antibody (Goat, 1:1000, ThermoFisher Scientific). Cells were washed four times 10 minutes with 1XPBS then mounted with Vectashield mouting media containing DAPI (Vector laboratories H-1200). […]

[3] = U-tube experiment (partition across a bulk hydrophobic solvent); type: physicochemical; settings: 250 µM on cis side; for Crossing to the trans-aqueous side of the U-tube (in words): up to 72 h; for Trans-side concentration, mean / Trans-side concentration, single replicates: 25°C
Protocol: Figure 2 (A) Partition of compounds in an U-tube experiment. Concentration of biguanide on the trans-side of the U-tube at 48 h and 72 h at 25 °C, after addition of 250 µM of biguanide on the cis-side. (B) Variation in the internal pH of HPTS-containing EYPC liposomes. Intravesicular solution: 1 mM HPTS, 10 mM HEPES, and 100 mM NaCl, adjusted to pH = 7.4, and extravesicular solution: 10 mM HEPES and 100 mM NaCl, adjusted to pH = 7.4. Biguanidiums were injected after 50 s at 5 mM (50 mol% relative to the 10 mM EYPC concentration), a NaOH pulse was induced at 300 s, and the liposomes were lysed with Triton-X at 550 s. Each curve is the average of three independent measurements. (C) Fluorescence of safranin O in the EYPC liposomes. Biguanidium salts were injected at 5 mM (50 mol% relative to the 10 mM EYPC concentration) at 50 s. Each curve is the average of three independent measurements. […] Mitochondrial isolation was performed according to the previously reported protocol.
Experimental. U-tube experiment was prepared by adding 800 µL of dichloromethane in a U-shaped tube as a representation of the hydrophobic lipid membrane. On the receiving end (trans side) of the tube was added 300 µL of distilled water while the other side (cis side) was filled with 300 µL of a 250 µM solution of the compound of interest at 25°C. At 48h and 72h, 100 µL aliquot of the trans side was diluted in 900 µL methanol and monitored by LCMS (292 m/z). Area under curve (AUC) was measured and fitted on a calibration curve.

AH375 cells = experiment: Tumor sphere formation, AH375 cells; type: cell-based, mouse; settings: 24 h treatment
[4] = Homo sapiens, KP-4, 72 h, 72 hours, read-out: IC50

Compound	IC50 (KP4 cells [1]; [4])	IC50 fold lower than phenformin (KP4 cells [1]; KP4 and Panc1 cells)	IC50 (KP4 cells [1]; 3 days treatment, crystal violet retention assay, read-out: IC50 KP4)	Fold more active than metformin (KP4 cells [1]; conclusion)	Effect on mitochondrial morphology (KP4 cells [2])	Crossing to the trans-aqueous side of the U-tube (in words) [3]	Trans-side concentration, mean ([3]; 48h)	Trans-side concentration, single replicates ([3]; 48h)	Trans-side concentration, mean ([3]; 72h)	Trans-side concentration, single replicates ([3]; 72h)	Decrease of the number of AH375 spheres (AH375 cells; 5 µM)	Decrease of the number of AH375 spheres (AH375 cells; 1 mM)
N=C(N)NC(=N)NCc1ccc(C#Cc2ccccc2)cc1 [1b, 4-(phenylethynyl)benzylbiguanide]	6.1 µM	8–12 fold	6.13 µM	1000 fold	punctuated pattern typical of fragmented mitochondria	able to partition rapidly into the chloroform and cross to the trans-aqueous side	64,7 µM	90,1 µM and 57,1 µM and 46,8 µM	92,3 µM	78,6 µM and 99,3 µM and 99,1 µM	75%	–
CN(C)C(=N)NC(=N)N [metformin, 1,1-dimethylbiguanide, reference compound]	~5000 µM	–	–	–	loss of the filamentous mitochondrial network	only traces	–	–	–	–	–	50%
